Source: ChEMBL document CHEMBL4689842, “EUbOPEN Chemogenomics Library wave 1” (2021)

What was measured:
Type in all cases: toxicity, cell-based
Fibroblast = assay: Incucyte cell viability with human fibroblast; conditions: 10 µM, compound concentration 10 uM
HEK-293T = assay: Incucyte cell viability with HEK293T; conditions: human, 10 µM, compound concentration 10 uM
U2OS = assay: Incucyte cell viability with U2OS; conditions: human, 10 µM, compound concentration 10 uM
[1] = 0 h, replicate number 1, timepoint 0 hours
[2] = 6 h, replicate number 1, timepoint 6 hours
[3] = 6 h, replicate number 2, timepoint 6 hours
[4] = 12 h, replicate number 1, timepoint 12 hours
[5] = 18 h, replicate number 1, timepoint 18 hours
[6] = 18 h, replicate number 2, timepoint 18 hours
[7] = 24 h, replicate number 1, timepoint 24 hours
[8] = 24 h, replicate number 2, timepoint 24 hours
[9] = 0 h, replicate number 2, timepoint 0 hours
[10] = 12 h, replicate number 2, timepoint 12 hours
Further: filed as whole numbers so only -1 and 0 and 1 occur.

SMILES	Growth Rate (Fibroblast; [1])	Growth Rate (Fibroblast; [2])	Growth Rate (Fibroblast; [3])	Growth Rate (Fibroblast; [4])	Growth Rate (Fibroblast; [5])	Growth Rate (Fibroblast; [7])	Growth Rate (HEK-293T; [1])	Growth Rate (HEK-293T; [9])	Growth Rate (HEK-293T; [2])	Growth Rate (HEK-293T; [4])	Growth Rate (HEK-293T; [5])	Growth Rate (HEK-293T; [7])	Growth Rate (U2OS; [4])	Growth Rate (U2OS; [5])	Growth Rate (U2OS; [6])	Growth Rate (U2OS; [7])	Growth Rate (U2OS; [1])	Growth Rate (U2OS; [3])	Growth Rate (Fibroblast; [10])	Growth Rate (HEK-293T; [10])	further results
CCCCCCCCCCCCCCCCOC[C@H](COP(=O)([O-])OCC[N+](C)(C)C)OC(C)=O	0	1	0	1	1	1	1	0	1	1	1	1	1	0	1	1					Growth Rate (Fibroblast; [6]): 0; Growth Rate (Fibroblast; [8]): 0; Growth Rate (U2OS; [2]): 0; Growth Rate (U2OS; [10]): 0
CCCc1c(OCCCOc2ccc(OCC(=O)O)cc2)ccc(C(C)=O)c1O	0	1	0	1	1	1	1	0	1	1	1	1	0	1		0	0	1			Growth Rate (Fibroblast; [9]): 1; Growth Rate (HEK-293T; [3]): 0; Growth Rate (U2OS; [9]): 1; Growth Rate (U2OS; [10]): 1; Growth Rate (U2OS; [8]): 1
CC[C@@H]1CN2C(=O)N(C)c3nc(-c4ccccc4)[nH]c3C2=N1.Cl	0			1	1	1	1	0	1	1	1	1		1		1		1	0		Growth Rate (U2OS; [9]): 0; Growth Rate (U2OS; [10]): 0
c1ccc(Nc2nc3c(s2)CCCc2[nH]ncc2-3)nc1		0		1	1	0	1	0	0	0	0	0	1	0	1	0		0			Growth Rate (HEK-293T; [6]): 1; Growth Rate (HEK-293T; [8]): 1; Growth Rate (U2OS; [9]): 0; Growth Rate (U2OS; [2]): 1
CCCNS(=O)(=O)Nc1ncnc(OCCOc2ncc(Br)cn2)c1-c1ccc(Br)cc1	0	0		0	1	0	0		0	0	0	0	0	0		0					Growth Rate (U2OS; [2]): 0
Cc1nnn(-c2ccc(-c3ccc(C4(C(=O)O)CC4)cc3)cc2)c1NC(=O)O[C@H](C)c1ccccc1	0						0		0	0	0	0	1	1		1	0			1	Growth Rate (HEK-293T; [6]): 1
FC(F)(F)c1cccc(-c2noc(-c3cc(-c4ccccc4)c(C(F)(F)F)s3)n2)c1	0		0	1	1	1	1	0	0	0	0	0	1	1	0	1	1				Growth Rate (Fibroblast; [8]): 0; Growth Rate (U2OS; [9]): 0; Growth Rate (U2OS; [2]): 1; Growth Rate (U2OS; [10]): 0
CC(C)NC(=O)c1ccc(C#Cc2ccncc2)cn1	0	1	0	0	1	1	0		0	0	0	0	1	1		0	0		1		Growth Rate (Fibroblast; [9]): 1; Growth Rate (U2OS; [8]): 1
COc1ccnc(N2CCC3(CCCN(Cc4c[nH]c5ccccc45)C3=O)CC2)n1	0	0		0	0	0	0		1	1	1	1	1	1		0	1	0		0	Growth Rate (HEK-293T; [6]): 0; Growth Rate (HEK-293T; [8]): 0; Growth Rate (U2OS; [10]): 0
Cc1cc([C@@H](C)Nc2cccc(-c3cc(C)c(C(=O)N[C@@H](C)C(=O)O)c(C)c3)c2)ccc1Cl	0	1	0	1	1	0	1	0	0	0	0	0	1	0	1	1	0	0	0		Growth Rate (U2OS; [9]): 1
CC(C)c1onc(-c2c(Cl)cccc2Cl)c1COc1ccc(/C=C/c2cccc(C(=O)O)c2)c(Cl)c1	0	1		1	0	0	0		1	0	0	0	1	1		1	0			1	Growth Rate (Fibroblast; [9]): 1; Growth Rate (Fibroblast; [6]): 1; Growth Rate (Fibroblast; [8]): 1
COc1cc2c(CCNC(C)=O)c[nH]c2cc1Cl	0	1		1	1	1	0		1	1	1	1	1	0	1	1	0	1		0	Growth Rate (HEK-293T; [3]): 0
NS(=O)(=O)c1c(Cl)ccc(NC(=O)Nc2cccc(Cl)c2Cl)c1O	0		0	1	1	1	1	0	1	1	0	0	0	1		1	0		0		Growth Rate (Fibroblast; [9]): 1; Growth Rate (Fibroblast; [6]): 0; Growth Rate (Fibroblast; [8]): 0; Growth Rate (HEK-293T; [6]): 1; Growth Rate (HEK-293T; [8]): 1; Growth Rate (U2OS; [8]): 0
Cl.O=C(O)Cc1cccc(OCCCN(Cc2cccc(C(F)(F)F)c2Cl)CC(c2ccccc2)c2ccccc2)c1	0	1	0	1	1	0	0		1	1	0	0	0	0	1	1	0	0	0	0	Growth Rate (Fibroblast; [6]): 0
CCCCN(CCCC)C(=O)CN1C[C@H](c2cc(OC)c3c(c2)OCO3)[C@@H](C(=O)O)[C@@H]1CC(C)(C)CCC.Cc1ccc(S(=O)(=O)O)cc1	0	1		1	1	0	0		1	1	1	1	1	0	1	1	0			0	Growth Rate (Fibroblast; [8]): 1; Growth Rate (HEK-293T; [3]): 0; Growth Rate (HEK-293T; [6]): 0; Growth Rate (HEK-293T; [8]): 0; Growth Rate (U2OS; [2]): 0
C[C@@H](c1cccc(C#N)c1)n1cc(Cl)cc(C(N)=O)c1=N.Cl	0	1	0		1	1	0		1	0	1	1	1	1		1	0		0	1	Growth Rate (Fibroblast; [9]): 1; Growth Rate (Fibroblast; [8]): 0
CC1(C)C(=O)C(C)(C)c2cc(C(=O)Nc3ccc(C(=O)O)cc3)ccc21	0	0		0	0	0	0			1	1	1	0	1		1	0	1			Growth Rate (Fibroblast; [9]): 1; Growth Rate (Fibroblast; [6]): 1; Growth Rate (HEK-293T; [3]): 1; Growth Rate (U2OS; [10]): 1
COC1CCN(c2cccc(-c3cc(NC(C)=O)nc(-n4nc(C)cc4C)n3)n2)CC1	0	1	0	1	1	0	0		0	0	0	0	0	0		0	0	0	0		Growth Rate (Fibroblast; [6]): 0
CCCCCNC(=O)NS(=O)(=O)c1cc([N+](=O)[O-])ccc1NC1CCCCC1	0		0	1	1	1	1	0	0	0	0	1	1	0	1	1	0	1	0	1	Growth Rate (Fibroblast; [9]): 1; Growth Rate (HEK-293T; [3]): 1; Growth Rate (HEK-293T; [8]): 0
